Patent US8119663B2, “Heteroaryl-substituted piperidines” (Bayer Pharma Aktiengesellschaft, priority 2007, dated 2012)
Structures can show the parent of a compound that is named as a salt.

Target: T1, human protease activated receptor 1 (PAR1) (Homo sapiens, UniProt P25116)
T1 construct: the cell stably expresses the endogenous human PAR1 receptor and the endogenous purinergic receptor P2Y2; endogenous in cells; host or cells: HEK293-derived recombinant cell line constitutively expressing mitochondrial aequorin
T1 sequence (P25116 22-425): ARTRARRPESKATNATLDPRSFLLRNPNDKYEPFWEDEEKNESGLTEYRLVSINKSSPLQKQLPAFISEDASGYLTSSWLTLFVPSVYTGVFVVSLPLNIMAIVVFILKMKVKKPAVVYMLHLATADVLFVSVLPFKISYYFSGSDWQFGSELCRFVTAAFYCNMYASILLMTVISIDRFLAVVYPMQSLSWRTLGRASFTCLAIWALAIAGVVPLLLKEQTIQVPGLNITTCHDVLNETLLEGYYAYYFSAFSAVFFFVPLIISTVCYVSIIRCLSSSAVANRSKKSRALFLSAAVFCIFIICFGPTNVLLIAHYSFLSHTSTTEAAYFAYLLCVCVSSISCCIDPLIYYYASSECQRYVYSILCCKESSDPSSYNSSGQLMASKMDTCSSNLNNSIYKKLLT
Assay: Cellular functional in vitro test (aequorin luminescence, PAR1 test cell)
Assay type: cell-based
Conditions: recombinant HEK293-derived cell line expressing aequorin; PAR1 agonist added at its EC50 5 minutes after test substance
From the text: 1.a) Cellular Functional In vitro Test
A recombinant cell line is used to identify […] of the human protease activated receptor 1 (PAR1) and to quantify the activity of the substances described herein. The cell is originally derived from a human embryonal kidney cell (HEK293; ATCC: American Type Culture Collection, Manassas, Va. 20108, USA). The test cell line constitutively expresses a modified form of the calcium-sensitive photoprotein aequorin which, after reconstitution with the cofactor coelenterazine, emits light when the free calcium concentration in the inner mitochondrial compartment is increased (Rizzuto R, Simpson A W, Brini M, Pozzan T.; Nature 1992, 358, 325-327). Additionally, the cell stably expresses the endogenous human PAR1 receptor and the endogenous purinergic receptor P2Y2. The resulting PAR1 test cell responds to stimulation of the endogenous PAR1 or P2Y2 receptor with an intracellular release of calcium ions, which can be quantified through resulting aequorin luminescence with a suitable luminometer (Milligan G, Marshall F, Rees S, Trends in Pharmacological Sciences 1996, 17, 235-237).
For testing the substance specificity, its effect after activation of the endogenous PAR1 receptor is compared to the effect after activation of the endogenous purinergic P2Y2 receptor which utilizes the same intracellular signal path.
Test procedure: The cells are plated out two days (48 hours) before the test in culture medium (DMEM F12, supplemented with 10% FCS, 2 mM glutamine, 20 mM HEPES, 1.4 mM pyruvate, 0.1 mg/ml gentamycin, 0.15% Na bicarbonate; BioWhittaker Cat.# BE04-687Q; B-4800 Verviers, Belgium) in 384-well microtitre plates and kept in a cell incubator (96% atmospheric humidity, 5% V/V CO2, 37° C.). On the day of the test, the culture medium is replaced by a tyrode solution (in mM: 140NaCl, 5l KCl, 1MgCl2, 2CaCl2, 20 glucose, 20 HEPES), which additionally contains the cofactor coelenterazine (25 μM) and glutathione (4 mM), and the microtitre plate is then incubated for a further 3-4 hours. The test substances are then pipetted onto the microtitre plate, and 5 minutes after the transfer of the test substances into the wells of the microtitre plate the plate is transferred into the luminometer, a PAR1 agonist concentration which corresponds to the EC50 is added and the resulting light signal is immediately measured in the luminometer. To distinguish an antagonist substance action from a toxic action, the endogenous purinergic receptor is immediately subsequently activated with agonist (ATP, final concentration 10 μM) and the resulting light signal is measured.

| Structure (SMILES) | IC50 |
| --- | --- |
| CN(C)Cc1nnc(C2CC(c3ccc(OC(F)(F)F)cc3)CN(C(=O)N3CCOCC3)C2)o1 (racemic) [Example 470, {3-{5-[(Dimethylamino)methyl]-1,3,4-oxadiazol-2-yl}-5-[4-(trifluoromethoxy)phenyl]piperidin-1-yl}(morpholin-4-yl)methanone] | 4.16 nM |
| CC(C)Cc1nnc(C2CC(c3ccc(OC(F)(F)F)cc3)CN(C(=O)N3CCOCC3)C2)o1 (racemic) [Example 474, {3-[5-(2-Methylpropyl)-1,3,4-oxadiazol-2-yl]-5-[4-(trifluoromethoxy)phenyl]piperidin-1-yl}-(morpholin-4-yl)methanone] | 23.4 nM |
| CCSCc1csc(C2CC(c3ccc(CC)cc3)CN(C(=O)N3CCOCC3)C2)n1 (racemic) [Example 484, [3-(4-Ethylphenyl)-5-{4-[(ethylsulphanyl)methyl]-1,3-thiazol-2-yl}piperidin-1-yl](morpholin-4-yl)methanone] | 76.6 nM |
| CC(C)(C)c1csc(C2CC(c3ccc(OC(F)(F)F)cc3)CN(C(=O)N3CCOCC3)C2)n1 (racemic) [Example 487, {3-(4-tert-Butyl-1,3-thiazol-2-yl)-5-[4-(trifluoromethoxy)phenyl]piperidin-1-yl}(morpholin-4-yl)-methanone] | 107 nM |
| CCc1csc(C2CC(c3ccc(OC(F)(F)F)cc3)CN(C(=O)N3CCOCC3)C2)n1 (racemic) [Example 490, {3-(4-Ethyl-1,3-thiazol-2-yl)-5-[4-(trifluoromethoxy)phenyl]piperidin-1-yl}(morpholin-4-yl)-methanone] | 25.1 nM |
| CC(C)c1nnc(C2CC(c3ccc(OC(F)(F)F)cc3)CN(C(=O)N3CCOCC3)C2)s1 (racemic) [Example 494, Morpholin-4-yl{3-[5-(propan-2-yl)-1,3,4-thiadiazol-2-yl]-5-[4-(trifluoromethoxy)phenyl]piperidin-1-yl}methanone] | 5.67 nM |
| O=C(N1CCOCC1)N1CC(c2ccc(OC(F)(F)F)cc2)CC(c2nnc(-c3ccccc3)s2)C1 (racemic) [Example 495, Morpholin-4-yl{3-(5-phenyl-1,3,4-thiadiazol-2-yl)-5-[4-(trifluoromethoxy)phenyl]piperidin-1-yl}-methanone] | 3.51 nM |
| O=C(N1CCOCC1)N1CC(c2ccc(OC(F)(F)F)cc2)CC(c2nc(C3CCC3)no2)C1 (racemic) [Example 513, {3-(3-Cyclobutyl-1,2,4-oxadiazol-5-yl)-5-[4-(trifluoromethoxy)phenyl]piperidin-1-yl}(morpholin-4-yl)methanone] | 5.16 nM |
| CCc1noc(C2CC(c3ccc(OC(F)(F)F)cc3)CN(C(=O)N3CCC(C#N)CC3)C2)n1 (racemic) [Example 519, 1-({3-(3-Ethyl-1,2,4-oxadiazol-5-yl)-5-[4-(trifluoromethoxy)phenyl]piperidin-1-yl}carbonyl)-piperidine-4-carbonitrile] | 20.8 nM |
| CC(C)c1noc(C2CC(c3ccc(OC(F)(F)F)cc3)CN(C(=O)N3CCC(C#N)CC3)C2)n1 (racemic) [Example 520, 1-({3-[3-(Propan-2-yl)-1,2,4-oxadiazol-5-yl]-5-[4-(trifluoromethoxy)phenyl]piperidin-1-yl}-carbonyl)piperidine-4-carbonitrile] | 11 nM |
| CN(C)Cc1nc(C2CC(c3ccc(C(F)(F)F)cc3)CN(C(=O)N3CCOCC3)C2)no1 (single isomer, unassigned) [Example 170, {3-{5-[(Dimethylamino)methyl]-1,2,4-oxadiazol-3-yl}-5-[4-(trifluoromethyl)phenyl]piperidin-1-yl}(morpholin-4-yl)methanone hydrochloride] | 18.8 nM |
| COCCc1noc(C2CC(c3ccc(OC(F)(F)F)cc3)CN(C(=O)N3CCOCC3)C2)n1 (single isomer, unassigned) [Example 178, {3-[3-(2-Methoxyethyl)-1,2,4-oxadiazol-5-yl]-5-[4-(trifluoromethoxy)phenyl]piperidin-1-yl}-(morpholin-4-yl)methanone] | 17.1 nM |
| COCCc1noc(C2CC(c3cccc(OC(F)(F)F)c3)CN(C(=O)N3CCOCC3)C2)n1 (single isomer, unassigned) [Example 194, {3-[3-(2-Methoxyethyl)-1,2,4-oxadiazol-5-yl]-5-[3-(trifluoromethoxy)phenyl]piperidin-1-yl}-(morpholin-4-yl)methanone] | 66.1 nM |
| Cc1noc(C2CC(c3ccc(OC(F)(F)F)cc3)CN(C(=O)N3CCOCC3)C2)n1 (single isomer, unassigned) [Example 239, {3-(3-Methyl-1,2,4-oxadiazol-5-yl)-5-[4-(trifluoromethoxy)phenyl]piperidin-1-yl}(morpholin-4-yl)methanone] | 5.74 nM |
| Cc1noc(C2CC(c3ccc(C(F)(F)F)cc3)CN(C(=O)N3CCC(O)CC3)C2)n1 (single isomer, unassigned) [Example 260, (4-Hydroxypiperidin-1-yl){(3-(3-methyl-1,2,4-oxadiazol-5-yl)-5-[4-trifluoromethyl)phenyl]-piperidin-1-yl}methanone] | 11.4 nM |
| COCCc1noc(C2CC(c3ccc(C(F)(F)F)cc3)CN(C(=O)N3CCC(O)CC3)C2)n1 (single isomer, unassigned) [Example 275, (4-Hydroxypiperidin-1-yl) {3-[3-(2-methoxyethyl)-1,2,4-oxadiazol-5-yl]-5-[4-(trifluoromethyl)-phenyl]piperidin-1-yl}methanone] | 10.3 nM |
| COCCc1noc(C2CC(c3ccc(C(F)(F)F)cc3)CN(C(=O)N3CCC(O)CC3)C2)n1 (single isomer, unassigned) [Example 276, (4-Hydroxypiperidin-1-yl) {3-[3-(2-methoxyethyl)-1,2,4-oxadiazol-5-yl]-5-[4-(trifluoromethyl)-phenyl]piperidin-1-yl}methanone] | 25.3 nM |
| COCCc1noc(C2CC(c3ccc(C(F)(F)F)cc3)CN(C(=O)N3CC(O)C3)C2)n1 (single isomer, unassigned) [Example 279] | 14.7 nM |
| COCCc1noc(C2CC(c3ccc(OC(F)(F)F)c(C)c3)CN(C(=O)N3CCOCC3)C2)n1 (single isomer, unassigned) [Example 322, {3-[3-(2-Methoxyethyl)-1,2,4-oxadiazol-5-yl]-5-[3-methyl-4-(trifluoromethoxy)phenyl]piperidin-1-yl}(morpholin-4-yl)methanone] | 3.01 nM |
| Cc1noc(C2CC(c3ccc(C(F)(F)F)cc3)CN(C(=O)N3CCOCC3)C2)n1 (single isomer, unassigned) [Example 335, {3-(3-Methyl-1,2,4-oxadiazol-5-yl)-5-[4-(trifluoromethyl)phenyl]piperidin-1-yl}(morpholin-4-yl)-methanone] | 25.1 nM |
| COCCc1noc(C2CC(c3ccc(OC(F)(F)F)cc3)CN(C(=O)N3CCC(O)CC3)C2)n1 (single isomer, unassigned) [Example 449, (4-Hydroxypiperidin-1-yl) {3-[3-(2-methoxyethyl)-1,2,4-oxadiazol-5-yl]-5-[4-(trifluoromethoxy)-phenyl]piperidin-1-yl}methanone] | 86.3 nM |
| CC(C)c1noc(C2CC(c3ccc(OC(F)(F)F)cc3)CN(C(=O)N3CCC(O)CC3)C2)n1 (single isomer, unassigned) [Example 451, (4-Hydroxypiperidin-1-yl){3-[3-(propan-2-yl)-1,2,4-oxadiazol-5-yl]-5-[4-(trifluoromethoxy)phenyl]piperidin-1-yl}methanone] | 19.6 nM |
| Cc1noc(C2CC(c3ccc(OC(F)(F)F)cc3)CN(C(=O)N3CCC(O)CC3)C2)n1 (single isomer, unassigned) [Example 454, (4-Hydroxypiperidin-1-yl){3-(3-methyl-1,2,4-oxadiazol-5-yl)-5-[4-(trifluoromethoxy)phenyl]piperidin-1-yl}methanone] | 47.5 nM |
